From paper PMC6435698, “Keggin-type polyoxotungstates as mushroom tyrosinase inhibitors - A speciation study” (Scientific Reports, 2019) come the findings set out here.

The series can be described thus: speciation / hydrolytic stability of POTs at pH 6.8 by 183W NMR. Format: physicochemical. Conditions: 183W NMR (and 31P, 27Al NMR), ca. 20 mM in 50 mM Na-citrate pH 6.8. From the text: ^183W NMR spectroscopy is the most widely applied and reliable technique for the structural characterization of POTs in solution as well as to monitor the progress of reaction. Hundreds of POM ^183W NMR spectra have been reported since the first ^183W NMR spectrum for [SiW11]^8− observed by Acerete et al. in[47]. The here-presented ^183W NMR analysis yielded a single signal for all intact [XW12]^n− structures (Figs 4A,D and S11–S14), reflecting the perfect tetrahedral symmetry of the Keggin α-isomer and clearly confirming the isomeric purity of the prepared POTs.
^183W NMR samples for all the POM compounds were prepared in high concentrations similar to the stock solutions used for kinetic experiments (usually about 20 mM) in 50 mM Na-citrate pH 6.8 if not stated otherwise. ^183W NMR spectra were recorded with a Bruker FT-NMR spectrometer Avance Neo 500 MHz in 10 mm tubes for a total experiment time of ca. 60 hours, using standard pulse programs at 20.836 MHz and a 63° flip angle with 1 s of relaxation delay; the temperature was kept at 25 °C. Chemical shifts were measured relative to external 1 M Na2WO4. For [PW12]^3−, [PW11]^7− and […], additional ^31P NMR spectra were taken, structures of [AlW12]^5−, [AlW11]^9− and [BeW12]^6− were confirmed by ^27Al NMR or ^9Be NMR spectroscopy, respectively. ^27Al, ^9Be and ^31P NMR spectra were recorded at 130.368, 70.273 and 202.53 MHz, respectively. Chemical shifts are given relative to Al(NO3)3, BeSO4 or 85% H3PO4.
In the ^183W NMR spectrum of [PW12]^3− at pH 6.8 (see Fig. 4E), the six most intense peaks can be assigned to six different symmetry-equivalent positions in [PW11]^7−[47],[49]. The less intense signals in the ^183W NMR spectrum can be attributed to other [PW12]^3− hydrolysis products[51] that have been identified in the ^31P NMR spectrum (Fig. S7B). […] Based on both spectra, it can be concluded that [PW11]^7− prevails in aqueous solution at pH 6.8. […] Assignment is complicated by the special pseudo-paramagnetic character of this cluster (see ^183W NMR analysis in Fig. S15, SI section 2.2.2.4).
In order to identify the tungstate species responsible for the inhibitory effect observed with the orthotungstate solution [WO4]^2−, ^183W NMR was performed in reaction buffer pH 6.8, which had to be readjusted by a few drops of 5 M HCl to compensate for the marked basicity of [WO4]^2−. […] The chemical shifts are in agreement with literature data[56]. […] The ^183W NMR spectra for the POT clusters with higher negative charges (see Figs S11–S14) show only one single signal, thereby confirming full structural integrity of the corresponding Keggin anions at pH 6.8. The lacunary cluster [AlW11]^9− evoked a rise in pH up to 8.5 upon dissolution in reaction buffer (pH 6.8) to reach a final concentration of 20 mM. […] In the [BeW12]^6− spectrum (Fig. S14), three additional signals at −147.6, −155.3 and −168.6 ppm can be seen, which were assigned to the β-Keggin isomer. The C3v symmetry of this isomer results in three shifts with intensity ratio 1:2:1, as previously observed for other β-isomers of Keggin structure. The β-isomer is commonly formed during any synthesis of Keggin clusters, but rearranged to the α-form during prolonged thermal reaction. Thus, the occurrence of the β-form in the present preparation can be ascribed to the reduced reaction time applied for the hydrothermal synthesis. […] The ^31P (cf. Fig. S8) and ^183W NMR (Fig. S15) spectra of [PW11Ni]^5− have a special character originating from the peculiar electronic configuration of Ni^2+ and were in general accordance with reference data[61]. In the presented ^183W NMR spectrum, signals from those W atoms in direct neighbourhood to the Ni^2+ center cannot be observed, which complicates unambiguous assignment to the desired substituted POT structure. However, the obtained results can be explained in the light of electronic effects. […]

As to `[Na+].[Na+].[O]=[W](=[O])([O-])[O-]` [[WO4]^2−, Na2WO4, reference compound], the “structural integrity / hydrolysis at pH 6.8” value was “no detectable residual free orthotungstate”. In the case of K4[SiW12O40] [[SiW12]^4−] it was “partial hydrolysis”.
